Assay results taken from patent US8975290B2, “Methods and compositions for enhancing an immune response, blocking monocyte migration, amplifying vaccine immunity and inhibiting tumor growth and metastasis” (Colorado State University Research Foundation, priority 2013, dated 2015).
Where two headings read alike, the source gives them in different places.

Key:
[1] = cited from earlier work
monocytes = assay: Boyden chamber assay on blood samples of Losartan-treated dogs; format: in vivo
inflammatory monocytes = assay: Footpad inflammation-induced monocyte migration assay (flow cytometry of draining popliteal lymph nodes); format: in vivo; conditions: mice, 24 h after vaccination, vs vaccine only
Method: Footpad inflammation-induced monocyte migration assays were performed as previously described (Mitchell et al. (2012), J. Immunology 189: 5612-5621) to determine whether Ondansetron inhibits monocyte migration in vivo in mice. Briefly, two groups of mice (n=4 per group) were injected with 50 μl of liposomal vaccine adjuvant in one footpad. The first group of mice was treated by injection of 3 mg/kg Ondansetron administered IP at the time of footpad injection and the Ondansetron injections were repeated 12, 24, and 36 hours following footpad injection. […] The third group received neither the vaccine nor the Ondansetron. Inflammatory monocyte migration to the draining popliteal lymph nodes was assessed in all three groups of mice via flow cytometry (as described in Mitchell et al. (2012), J. Immunology, supra) 24 hours following vaccination.
Briefly, two groups of mice (n=4 per group) were vaccinated in the right rear footpad. […] Inflammatory monocyte migration to the draining popliteal lymph nodes was assessed in all three groups of mice via flow cytometry (as described in Mitchell et al. (2012), J. Immunology, supra) 24 hours following vaccination.

dog monocytes = assay: Boyden chamber assay, dog monocyte migration in response to a CCL2 (MCP-1) gradient; format: cell-based
Method: (§1) The Boyden chamber assay is based on a chamber of two medium-filled compartments separated by a microporous membrane. In general, cells are placed in the upper compartment and are allowed to migrate through the pores of the membrane into the lower compartment, in which chemotactic agents are present. After an appropriate incubation time, the membrane between the two compartments is fixed and stained, and the number of cells that have migrated to the lower side of the membrane is determined. Experiments using this assay were performed as described in Mitchell et al. (2012) Int. Immunopharmacol. 15: 357-363 to assess the migration of monocytes.

spleen cells = assay: IFNγ secretion of spleen cells in response to ovalbumin restimulation (cellular immunity); format: in vivo; conditions: vaccinated mice treated concurrently with Losartan; restimulated in vitro 72 hours with 5 μg/ml ovalbumin; vs vaccine only; p<0.05 (FIG. 11)
Method: Two groups of mice were immunized as noted in Example 7 above. To determine whether cellular immunity was enhanced in the Losartan-treated mice, mice from both the first and second groups were euthanized, and their spleen cells were assayed to determine IFNγ secretion levels in response to ovalbumin restimulation. Splenectomies and restimulation assays for cellular immune responses were performed as previously described (Mitchell et al. (2012), J. Immunology, supra). Spleen cells were restimulated in vitro for 72 hours with 5 μg/ml ovalbumin protein.

ovalbumin = assay: Anti-ovalbumin antibody titers after ovalbumin vaccination (humoral immunity); format: in vivo; conditions: mice, boost at day 10, vs vaccine only
Method: Briefly, two groups of mice (n=5) were vaccinated with 5 μg of ovalbumin. […] The second group of mice received no additional treatment following vaccination. Second vaccinations were repeated 10 days following the initial vaccinations.
To assess the effects of Ondansetron on humoral immunity, mice were treated with Ondansetron at the time of vaccination. Briefly, two groups of mice (n=4 per group) were vaccinated subcutaneously with 1 μg of ovalbumin in a liposomal adjuvant. The first group of mice received 3 mg/kg Ondansetron via i.p. injection at the time of vaccination, and at 12, 24, and 36 hours following vaccination. The second group of mice received no additional treatment following vaccination. A third group of mice received neither the vaccine nor the Ondansetron. Second vaccinations were repeated for the first two groups of mice 10 days following the initial vaccinations, and second Ondansetron treatments were repeated for the groups as described for the first cycle of vaccination.

[2] = test system: human monocyte cell line THP-1; assay: Boyden chamber assay, human monocyte migration in response to a CCL2 (MCP-1) gradient; format: cell-based; conditions: dose dependent, FIG. 1 (Losartan), FIG. 3 (Ondansetron)
Method: as §1, with “monocytes. […] A Boyden chamber assay was performed (as described in Mitchell et al. (2012) Int. Immunopharmacol, supra) to assess the migration of human monocytes (i.e., the human monocyte cell line THP-1) in response to a CCL2 (MCP-1) gradient and to assess the ability of Ondansetron to inhibit monocyte migration in vitro.” for “monocytes.”

A20-HA tumors = assay: A20 mouse B-cell lymphoma model, tumor vaccine responses; format: in vivo, mice
Method: The A20 mouse B-cell lymphoma model was used to assess the effects of Ondansetron on tumor vaccine responses. Briefly, two groups of mice (n=5 per group) with established d3 A20-HA tumors (i.e., tumors expressing HA) were vaccinated weekly for 3 weeks with HA antigen (1 μg per mouse in liposome adjuvant), either without or with concurrently administered ondansetron (3 mg/kg i.p., administered 4 times at 12 h intervals). A third group of mice received neither the HA nor the Ondansetron. Tumor measurements were made using calipers every 2-3 days. Mice were sacrificed when their tumors reached a diameter of 1.5 cm.
Labeled anti-CD11b antibodies were used to quantitate the numbers of infiltrating CD11b+ monocyte/macrophages in the tumor tissues.

[3] = Table 2, Comparison of ARB Pharmacokinetics

CCOc1nc2cccc(C(=O)O)c2n1Cc1ccc(-c2ccccc2-c2nnn[nH]2)cc1 [Candesartan]
Bioavailability [1, 3]: 15%
Biological Half-Life [1, 3]: 9 hours

CCCCC1=NC2(CCCC2)C(=O)N1Cc1ccc(-c2ccccc2-c2nnn[nH]2)cc1 [Irbesartan]
Biological Half-Life [1, 3]: 11-15 hours

CCCCc1nc(Cl)c(CO)n1Cc1ccc(-c2ccccc2-c2nn[nH]n2)cc1 [Losartan]
monocyte migration in blood samples after treatment (monocytes; 3 dogs with cancer, 2 mg/kg/day for two weeks, pooled data, FIG. 8): Monocyte migration was inhibited
monocyte migration in blood samples after treatment (monocytes; healthy dogs, 2 mg/kg/day for 48 hours, vs before treatment, FIG. 7): significantly inhibited
migration of inflammatory monocytes to the draining lymph nodes (inflammatory monocytes; 30 mg/kg Losartan at injection and 12 h after, p<0.05 (FIG. 6)): significantly reduced
canine monocyte migration in vitro (dog monocytes; CCL2 (MCP-1) gradient, dose dependent, FIG. 2): potently blocked canine monocyte migration in vitro in a dose dependent manner
canine monocyte migration in the presence of MCP-1 (dog monocytes; concentrations of 1 μg/ml and 10 μg/ml): blocked canine monocyte migration even in the presence of MCP-1
IFNγ production by spleen cells (spleen cells): produced significantly more IFNγ
anti-ovalbumin antibody titers (ovalbumin; 5 μg ovalbumin, 30 mg/kg Losartan at vaccination and 12, 24, 36 h after, p<0.05 (FIG. 9)): significantly higher anti-ovalbumin antibody titers
human monocyte migration (THP-1) in vitro [2]: potently blocked human monocyte migration (THP-1) in vitro in a dose dependent manner

CCCc1nc(C(C)(C)O)c(C(=O)O)n1Cc1ccc(-c2ccccc2-c2nnn[nH]2)cc1 [Olmesartan]
Bioavailability [1, 3]: 29%
Biological Half-Life [1, 3]: 14-16 hours

Cc1nccn1CC1CCc2c(c3ccccc3n2C)C1=O (centres unmarked) [Ondansetron]
Biological Half-Life ([1]; text b221): about 3.9 hours
migration of inflammatory monocytes to the draining lymph nodes (inflammatory monocytes; 3 mg/kg Ondansetron IP at footpad injection and 12, 24, 36 h after, p<0.001 (FIG. 4, 5)): significantly reduced
infiltrating CD11b+ monocyte/macrophages in tumor tissues (A20-HA tumors; immunohistochemistry, vaccine with Ondansetron vs vaccine alone, FIG. 13): markedly fewer monocyte/macrophages
tumor growth rates (A20-HA tumors; mice with A20-HA tumors, HA vaccine weekly for 3 weeks with ondansetron 3 mg/kg i.p. 4 times at 12 h intervals, vs vaccine only, FIG. 12): significantly reduced
anti-ovalbumin antibody titers (ovalbumin; 1 μg ovalbumin s.c. in liposomal adjuvant, 3 mg/kg Ondansetron i.p. at vaccination and 12, 24, 36 h after, p<0.05 (FIG. 10)): significantly higher anti-ovalbumin antibody titers
human monocyte migration (THP-1) in vitro [2]: potently blocked THP-1 monocyte migration in vitro in a dose dependent manner

CCCc1nc2c(C)cc(-c3nc4ccccc4n3C)cc2n1Cc1ccc(-c2ccccc2C(=O)O)cc1 [Telmisartan]
Bioavailability [1, 3]: 42-58%
